SMILES strings stand for the structures. pIC50: −log10 of the molar value.

human P2X7 receptor, sequence (Q99572 whole entry R270H): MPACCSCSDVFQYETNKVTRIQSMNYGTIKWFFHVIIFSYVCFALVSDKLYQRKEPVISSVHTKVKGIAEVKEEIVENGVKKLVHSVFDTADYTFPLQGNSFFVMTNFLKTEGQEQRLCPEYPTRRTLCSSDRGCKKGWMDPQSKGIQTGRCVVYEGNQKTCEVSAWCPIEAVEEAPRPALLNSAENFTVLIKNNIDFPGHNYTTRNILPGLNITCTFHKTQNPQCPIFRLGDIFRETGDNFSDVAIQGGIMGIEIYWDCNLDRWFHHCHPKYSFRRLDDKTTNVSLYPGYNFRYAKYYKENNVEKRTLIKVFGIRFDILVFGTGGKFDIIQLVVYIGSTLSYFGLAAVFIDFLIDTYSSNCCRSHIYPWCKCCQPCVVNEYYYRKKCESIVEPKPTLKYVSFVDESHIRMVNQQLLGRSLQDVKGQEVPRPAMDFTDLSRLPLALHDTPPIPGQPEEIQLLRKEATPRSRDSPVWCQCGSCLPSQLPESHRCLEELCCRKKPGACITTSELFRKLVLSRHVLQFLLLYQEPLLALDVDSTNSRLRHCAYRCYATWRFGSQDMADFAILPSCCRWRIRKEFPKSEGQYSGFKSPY

The target of the first assay is human P2X7 receptor (Homo sapiens (Human), UniProt Q99572, R270H). The assay can be described thus: Evaluation of a human P2X7 receptor inhibitory activity (Yo-Pro uptake, BzATP stimulation, FLIPR TETRA). The following applies: 1321N1 cells stably expressing human P2X7 receptor, Yo-Pro fluorescence. The format is cell-based. As for the experimental part:
Evaluation of a human P2X7 receptor inhibitory activity Stably expressing cell line (1321N1 cell transfected with the human P2X7 receptor gene (GenBank accession number NM_002562.5 including T606C and G952A SNP)) was used. The cells were seeded in a 384-well microtiter plate at a concentration of 8000 cells/well and cultured in the medium (10% fetal bovine serum, 25 mM HEPES, 1% penicillin and streptomycin in DMEM) for one day at 37° C. under 5% carbon dioxide atmosphere. After replacing with 20 μL of the HBSS buffer (20 mM HEPES, 55.6 mM D-glucose, 1× HBSS(−), pH7.4-7.5), 15 μL of 17.3 μM Yo-Pro solution in the HBSS buffer was added. The plate was placed in high-throughput cellular screening system FLIPR TETRA (Molecullar Devices, LLC.) and 15 μL of 130 μM BzATP solution in the HBSS buffer was added. Measurement of fluorescence intensity by FLIPR TETRA was started. After eight minutes, 15 μL of DMSO solutions containing different concentrations of the compound of the present invention as prepared by dilution with the HBSS buffer were dispensed to each well through the built-in automatic dispenser, and the measurement of fluorescence intensity was continued for 20 minutes. The maximum fluorescence intensity without the compound of the present invention is calculated as 0% inhibition and the maximum fluorescence intensity when the reference compound was added is calculated as 100% inhibition. Changing values of fluorescence intensity by the compound of the present invention were calculated by difference between maximum and minimum fluorescence intensity for 20 minutes. Inhibition ratios (%) were calculated from the following equation:
[formula] IC50 was calculated using logistic approximation.
As for IC50 value, value to below 10 nmol/L is represented as “A”, value from 10 nmol/L to below 100 nmol/L is represented as “B”, value from 100 nmol/L to below 500 nmol/L is represented as “C”, and value from 500 nmol/L to below 1 μmol/L is represented as “D”.
Turning to `Cc1c(Cl)cccc1Nc1nc(=O)cc2n1C(c1ccccc1)COC2` (single isomer, unassigned) [Compound I-0003], the pIC50 (in general, −log10 of the IC50, conventionally taken in molar units) was 8.74.
On the same count and under the same terms, with `O=c1cc2n(c(Nc3cccc4ncccc34)n1)C(c1ccccc1)CO2` (centres unmarked) [Compound I-0001] the figure was 7.80; with `Cc1ccccc1Nc1nc(=O)cc2n1C(c1ccccc1)CCC2` (centres unmarked) [Compound I-0004], 7.43.
On to `COc1c2n(c(Nc3cccc(Cl)c3C)nc1=O)C(c1ccccc1)CCO2` (centres unmarked) [Compound I-0009], for which the negative-log IC50 (pIC50) was 7.66.
On the same count and under the same terms, the result for `COc1c2n(c(Nc3cc4sc(C)nc4cc3C)nc1=O)C(c1ccccc1)CC2` (centres unmarked) [Compound I-0032] reads 7.80; that for `CCc1nc(OC)ccc1Nc1nc(=O)cc2n1C(c1cc(F)cc(F)c1)CC2` (centres unmarked) [Compound I-0059], 7.96.

The same assay, now with this note: 1321N1 cells stably expressing human P2X7 receptor, Yo-Pro fluorescence, class symbols.
For the compound `Cc1c(Cl)cccc1Nc1nc(=O)cc2n1C(c1ccccc1)CO2` (centres unmarked) [Compound I-0002], the pIC50 was over 8.00.
The compound `Cc1c(Cl)cccc1Nc1nc(=O)cc2n1C(c1ccccc1)CCC2` (centres unmarked) [Compound I-0005] had a negative-log IC50 (pIC50) of 7.00 to 8.00.
On the same count and under the same terms, with `Cc1c(Cl)cccc1Nc1nc(=O)cc2n1C(c1ccccc1)CCO2` (centres unmarked) [Compound I-0006] the figure was 7.00 to 8.00; with `Cc1c(Cl)cccc1Nc1nc(=O)cc2n1C(c1ccccc1)CC2` (centres unmarked) [Compound I-0007], over 8.00; with `Cc1c(Cl)cccc1Nc1nc(=O)cc2n1C(c1cccc(Cl)c1)CC2` (centres unmarked) [Compound I-0008], over 8.00.
Still for that read-out and setting: the result for `COc1cc(C)c(Nc2nc(=O)cc3n2C(c2ccccc2)CC3)cc1OC` (centres unmarked) [Compound I-0010] reads over 8.00; that for `Cc1cc(Nc2nc(=O)cc3n2C(c2ccccc2)CC3)c(C)cc1Cl` (centres unmarked) [Compound I-0011], over 8.00.
Still for that read-out and setting: with `Cc1cc(Nc2nc(=O)cc3n2C(c2ccc(F)c(Cl)c2)CC3)c(C)cc1Cl` (centres unmarked) [Compound I-0012] the figure was over 8.00; with `COc1cc(C)c(Nc2nc(=O)cc3n2C(c2ccc(F)c(Cl)c2)CC3)cc1OC` (centres unmarked) [Compound I-0013], over 8.00; with `COc1ccc(Nc2nc(=O)cc3n2C(c2ccccc2)CC3)c(C)c1` (centres unmarked) [Compound I-0014], over 8.00.
As to `Cc1ccccc1Nc1nc(=O)cc2n1C(c1ccccc1)CC2` (centres unmarked) [Compound I-0015], the pIC50 was 7.00 to 8.00.
On the same count and under the same terms, with `COc1ccc(C)c(Nc2nc(=O)cc3n2C(c2ccccc2)CC3)c1` (centres unmarked) [Compound I-0016] the figure was 7.00 to 8.00; with `COc1cc(C)c(Nc2nc(=O)cc3n2C(c2ccc(F)cc2)CC3)cc1OC` (centres unmarked) [Compound I-0017], 7.00 to 8.00.
The same measure, in the same setting: with `COc1cc(C)c(Nc2nc(=O)cc3n2C(c2cccc(F)c2)CC3)cc1OC` (centres unmarked) [Compound I-0018] the figure was 7.00 to 8.00.
On the same count and under the same terms, with `COc1ccc(Nc2nc(=O)cc3n2C(c2ccccc2)CC3)cc1OC` (centres unmarked) [Compound I-0019] the figure was over 8.00; with `COc1cc(C)c(Nc2nc(=O)cc3n2C(c2ccccc2)CC3)cc1C` (centres unmarked) [Compound I-0020], over 8.00; with `COc1cc(C)c(Nc2nc(=O)cc3n2C(c2cc(F)c(F)c(F)c2)CC3)cc1OC` (centres unmarked) [Compound I-0021], 7.00 to 8.00.
On to `COc1cc(Nc2nc(=O)cc3n2C(c2ccccc2)CC3)c(C)cc1F` (centres unmarked) [Compound I-0022], for which the pIC50 was over 8.00.
For `COc1ccc(Nc2nc(=O)cc3n2C(c2ccc(F)cc2)CC3)c(C)c1` (centres unmarked) [Compound I-0023], the pIC50 was over 8.00.
The compound `COc1cc(C)c(Nc2nc(=O)cc3n2C(c2ccccc2)CC3)cc1F` (centres unmarked) [Compound I-0024] had a pIC50 of 7.00 to 8.00.
Compound `COc1cc(C)c(Nc2nc(=O)cc3n2C(c2ccc(F)c(F)c2)CC3)cc1OC` (centres unmarked) [Compound I-0025] had a pIC50 of 7.00 to 8.00.
Same read-out and setting: with `Cc1nc2cc(C)c(Nc3nc(=O)cc4n3C(c3ccc(F)cc3)CC4)cc2s1` (centres unmarked) [Compound I-0026] the figure was over 8.00; with `COc1cc(Nc2nc(=O)cc3n2C(c2ccccc2)CC3)c(C)cc1Cl` (centres unmarked) [Compound I-0027], over 8.00; with `COc1cc(C)c(Nc2nc(=O)cc3n2C(c2ccccc2)CC3)cc1Cl` (centres unmarked) [Compound I-0028], over 8.00.
Still for that read-out and setting: with `Cc1nc2cc(C)c(Nc3nc(=O)cc4n3[C@H](c3ccccc3)CC4)cc2s1` [Compound I-0029] the figure was over 8.00; with `COc1cc(C)c(Nc2nc(=O)cc3n2C(c2ccccc2)CC3)cn1` (centres unmarked) [Compound I-0030], 6.30 to 7.00; with `COc1cc(C)c(Nc2nc(=O)c(OC)c3n2C(c2ccccc2)CC3)cc1C` (centres unmarked) [Compound I-0031], 7.00 to 8.00.
`COc1cc(Nc2nc(=O)cc3n2C(c2ccc(F)cc2)CC3)c(C)cc1Cl` (centres unmarked) [Compound I-0033] gave a pIC50 of 7.00 to 8.00.
For the compound `COc1ccc(Nc2nc(=O)cc3n2C(c2ccccc2)CC3)c(C)n1` (centres unmarked) [Compound I-0034], the negative-log IC50 (pIC50) is 7.00 to 8.00.
Compound `COc1cc(Nc2nc(=O)cc3n2C(c2ccccc2)CC3)c(C)cn1` (centres unmarked) [Compound I-0035] had a negative logarithm of the IC50 (pIC50) of 6.30 to 7.00.
The same measure, in the same setting: with `COc1c2n(c(Nc3cc4sc(C)nc4cc3C)nc1=O)C(c1ccc(F)cc1)CC2` (centres unmarked) [Compound I-0036] the figure was 7.00 to 8.00.
Same read-out and setting: with `COc1ccc(Nc2nc(=O)cc3n2C(c2ccc(F)c(Cl)c2)CC3)c(C)c1` (centres unmarked) [Compound I-0037] the figure was over 8.00.
For the compound `COc1ccc(Nc2nc(=O)cc3n2C(c2cc(F)cc(F)c2)CC3)c(C)c1` (centres unmarked) [Compound I-0038], the pIC50 is over 8.00.
As to `CCc1cc(Nc2nc(=O)cc3n2C(c2ccccc2)CC3)c(C)cc1OC` (centres unmarked) [Compound I-0039], the negative logarithm of the IC50 (pIC50) is over 8.00.
Same read-out and setting: the result for `Cc1cc2c(cc1Nc1nc(=O)cc3n1C(c1ccccc1)CC3)COC2` (centres unmarked) [Compound I-0040] reads 7.00 to 8.00; that for `COc1ccc(Nc2nc(=O)cc3n2C(c2ccc(F)c(F)c2)CC3)c(C)c1` (centres unmarked) [Compound I-0041], over 8.00.
The same measure, in the same setting: with `COc1ccc(Nc2nc(=O)cc3n2C(c2cc(F)c(F)c(F)c2)CC3)c(C)c1` (centres unmarked) [Compound I-0042] the figure was over 8.00; with `COc1nc(C)c(Nc2nc(=O)cc3n2C(c2ccccc2)CC3)cc1C` (centres unmarked) [Compound I-0043], over 8.00; with `COc1cc(Nc2nc(=O)c(OC)c3n2C(c2ccccc2)CC3)c(C)cc1Cl` (centres unmarked) [Compound I-0044], 7.00 to 8.00.
Still for that read-out and setting: with `COc1cc(Nc2nc(=O)c(OC)c3n2C(c2ccccc2)CC3)c(C)cc1F` (centres unmarked) [Compound I-0045] the figure was 7.00 to 8.00; with `COc1ccc(Nc2nc(=O)c(F)c3n2C(c2ccccc2)CC3)c(C)c1` (centres unmarked) [Compound I-0046], 7.00 to 8.00; with `COc1ccc(Nc2nc(=O)cc3n2C(c2cc(F)cc(F)c2)CC3)c(C)n1` (centres unmarked) [Compound I-0047], 7.00 to 8.00.
As to `COc1ccc(Nc2nc(=O)cc3n2C(c2cc(F)c(F)c(F)c2)CC3)c(C)n1` (centres unmarked) [Compound I-0048], the negative-log IC50 (pIC50) was 7.00 to 8.00.
`COc1ccc(Nc2nc(=O)cc3n2C(c2cccc(F)c2)CC3)c(C)c1` (centres unmarked) [Compound I-0049] had a negative-log IC50 (pIC50) of over 8.00.
On the same count and under the same terms, with `COc1ccc(Nc2nc(=O)cc3n2C(c2cccc(Cl)c2)CC3)c(C)c1` (centres unmarked) [Compound I-0050] the figure was over 8.00.
Compound `COc1nc(C)c(Nc2nc(=O)cc3n2C(c2cc(F)cc(F)c2)CC3)cc1C` (centres unmarked) [Compound I-0051] gave a pIC50 of 7.00 to 8.00.
Same read-out and setting: with `COc1ccc(Nc2nc(=O)c(OC)c3n2C(c2ccccc2)CC3)c(C)c1` (centres unmarked) [Compound I-0052] the figure was 7.00 to 8.00.
On the same count and under the same terms, the result for `Cc1nc2cc(C)c(/N=c3\[nH]c(=O)cc4n3C(c3cc(F)cc(F)c3)CC4)cc2s1` (centres unmarked) [Compound I-0053] reads 7.00 to 8.00; that for `Cc1nc2cc(C)c(/N=c3\[nH]c(=O)c(F)c4n3C(c3ccc(F)cc3)CC4)cc2s1` (centres unmarked) [Compound I-0054], over 8.00.
Turning to `CCOc1ccc(Nc2nc(=O)cc3n2C(c2cc(F)cc(F)c2)CC3)c(C)n1` (centres unmarked) [Compound I-0055], the pIC50 was 7.00 to 8.00.
On the same count and under the same terms, with `Cc1cc(OC(F)F)ccc1/N=c1\[nH]c(=O)cc2n1C(c1cc(F)cc(F)c1)CC2` (centres unmarked) [Compound I-0056] the figure was 7.00 to 8.00.
On the same count and under the same terms, the result for `Cc1cc(OC(F)F)ccc1/N=c1\[nH]c(=O)c(F)c2n1C(c1ccc(F)cc1F)CC2` (centres unmarked) [Compound I-0057] reads 7.00 to 8.00; that for `Cc1nc2cc(C)c(Nc3nc(=O)c(F)c4n3C(c3ccc(F)cc3F)CC4)cc2s1` (centres unmarked) [Compound I-0058], over 8.00; that for `CCc1nc(OC)ccc1Nc1nc(=O)cc2n1C(c1cc(F)cc(F)c1)CC2` (centres unmarked) [Compound I-0059], 7.00 to 8.00.
On the same count and under the same terms, with `COc1ccc(C)c(/N=c2\[nH]c(=O)cc3n2C(c2cc(F)cc(F)c2)CC3)c1` (centres unmarked) [Compound I-0061] the figure was 7.00 to 8.00; with `COc1cc(/N=c2\[nH]c(=O)c(F)c3n2C(c2ccc(F)cc2F)CC3)c(C)cc1F` (centres unmarked) [Compound I-0062], 7.00 to 8.00.
On to `COc1cc(/N=c2\[nH]c(=O)cc3n2C(c2cc(F)cc(F)c2)CC3)c(C)cc1F` (centres unmarked) [Compound I-0063], for which the pIC50 is 7.00 to 8.00.
Same read-out and setting: with `COc1ccc(Nc2nc(=O)c(F)c3n2C(c2ccc(F)cc2F)CC3)c(C)c1` (centres unmarked) [Compound I-0064] the figure was 7.00 to 8.00.
Same read-out and setting: with `Cc1cc(OC(F)F)c(C)cc1/N=c1\[nH]c(=O)cc2n1C(c1ccccc1)CC2` (centres unmarked) [Compound I-0065] the figure was over 8.00.

These data come from US11066409B2, “Bicyclic nitrogen-containing heterocyclic derivatives and pharmaceutical composition comprising the same” (Shionogi & Co., Ltd., priority 2016, dated 2021).
